Measured values reported in article PMC12714728, “VHH antibody loop guides design of a synthetic macrocyclic peptide that potently blocks influenza virus membrane fusion” (npj Viruses, 2025).
Where “and” joins values, the source holds several entries; their conditions need not be identical. Equal entries are not always repeated. Where two headings read alike, the source gives them in different places.

What was measured:
[1] = target: H4N6 A/duck/Czechoslovakia/1956 HA (Influenza A virus, UniProt P19696); format: binding
[2] = target: H6N2 A/turkey/Massachusetts/3740/1965 HA; format: binding, influenza A virus
[3] = test system: H5/Viet HA (H5N1 A/Vietnam/1203/2004); format: binding, influenza A virus
[4] = In vitro cell permeability / P-gp substrate assay; conditions: for Papp A→B: LLC-PK1, Papp AB, LLC-MDR1, apical to basolateral; for Papp B→A: LLC-PK1, Papp BA, LLC-MDR1, basolateral to apical
[5] = test system: group 1 H1/Cal, H1/NCa, and H5/Viet HAs; format: binding, influenza A virus
[6] = test system: H1N1 A/Brisbane/59/2007 (H1/Bri) HA; format: biochemical, influenza A virus; conditions: pH 5.25
[7] = target: H7N7 A/Netherlands/219/2003 HA; format: binding, influenza A virus
[8] = target: H3N2 A/Victoria/361/2011 HA; format: binding, influenza A virus
[9] = target: H1N1 A/Solomon Islands/3/2006 HA; format: binding, influenza A virus
[10] = target: H1/NCa HA (H1N1 A/New Caledonia/20/1999); format: binding, influenza A virus
[11] = target: H12N5 A/duck/Alberta/60/1976 HA; format: binding, influenza A virus
[12] = test system: H5/Viet virus (A/Vietnam/1203/2004 (H5N1))
[13] = target: B/Massachusetts/02/2012 HA (Yamagata lineage); format: binding, influenza B virus
[14] = target: H3N2 A/Hong Kong/1/1968 HA (Influenza A virus, UniProt Q91MA7); format: binding
[15] = target: H11N6 A/duck/England/1/1956 HA; format: binding, influenza A virus
[16] = target: H2N2 A/Adachi/2/1957 HA; format: binding, influenza A virus
[17] = test system: H1/Cal HA (H1N1 A/California/07/2009); format: binding, influenza A virus
[18] = test system: H1/Cal HA (A/California/07/2009 (H1N1)); format: binding, influenza A virus
[19] = test system: group 1 H1/Cal, H1/NCa, and H5/Viet HAs; format: binding, influenza A virus; remark: listed apart in the source
[20] = target: H10N7 A/chicken/Germany/N/1949 HA (Influenza A virus, UniProt P12581); format: binding
[21] = target: H16N3 A/black-headed gull/Sweden/4/1999 HA; format: binding, influenza A virus
[22] = target: H9N2 A/turkey/Wisconsin/1/1966 HA; format: binding, influenza A virus
[23] = target: H1N1 A/duck/Alberta/345/1976 HA; format: binding, influenza A virus
[24] = test system: H1/NCa HA (A/New Caledonia/20/1999 (H1N1)); format: binding, influenza A virus
[25] = test system: group 2 or influenza B HAs; format: binding, influenza A and B viruses
[26] = target: T1, H1/PR8 HA (A/Puerto Rico/8/1934 (H1N1)) (Influenza A virus, UniProt P03452); assay: Trypsin susceptibility (TS) assay; format: biochemical; conditions: pH 5.0; 50 μM CP1 or 10 μM CR9114 Fab, 5 μM HA
T1 construct: The HA ectodomain was expressed using a baculovirus expression system in Sf9 cells; gp67 signal peptide (N); thrombin site (C); BirA biotinylation site (C); trimerization domain (C); His-tag (C); made in house; host or cells: Sf9 cells (baculovirus)

[27] = In vitro cell permeability assay; conditions: for efflux ratio: LLC-PK1, Efflux ratio BA/AB; for efflux ratio / Papp B→A: LLC-Parent; for Papp B→A: LLC-PK1, Papp BA, basolateral to apical
[28] = target: H14N5 A/mallard/Astrakhan/263/1982 HA (Influenza A virus, UniProt P26136); format: binding
[29] = target: H15N9 A/shearwater/W. Australia/2576/79 HA; format: binding, influenza A virus
[30] = target: B/Brisbane/33/2008 HA (Victoria lineage); format: binding, influenza B virus
[31] = test system: H5/Viet HA (A/Vietnam/1203/2004 (H5N1)); format: binding, influenza A virus

H10N7 A/chicken/Germany/N/1949 HA, sequence (P12581 17-524 limits assumed): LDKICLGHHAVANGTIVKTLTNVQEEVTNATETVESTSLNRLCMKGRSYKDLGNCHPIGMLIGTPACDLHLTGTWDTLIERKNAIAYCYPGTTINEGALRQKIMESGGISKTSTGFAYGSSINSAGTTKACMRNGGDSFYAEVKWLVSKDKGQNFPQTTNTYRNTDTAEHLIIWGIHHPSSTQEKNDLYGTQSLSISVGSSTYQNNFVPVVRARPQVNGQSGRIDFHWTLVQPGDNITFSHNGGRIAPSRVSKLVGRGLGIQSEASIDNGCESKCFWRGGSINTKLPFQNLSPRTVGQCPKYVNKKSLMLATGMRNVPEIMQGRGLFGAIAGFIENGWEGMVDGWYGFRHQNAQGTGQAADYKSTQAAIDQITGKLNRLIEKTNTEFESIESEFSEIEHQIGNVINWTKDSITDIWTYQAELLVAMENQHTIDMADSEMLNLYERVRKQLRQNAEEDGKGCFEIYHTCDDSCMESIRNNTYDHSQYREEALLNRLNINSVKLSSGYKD
T1 sequence (P03452 18-528 limits assumed): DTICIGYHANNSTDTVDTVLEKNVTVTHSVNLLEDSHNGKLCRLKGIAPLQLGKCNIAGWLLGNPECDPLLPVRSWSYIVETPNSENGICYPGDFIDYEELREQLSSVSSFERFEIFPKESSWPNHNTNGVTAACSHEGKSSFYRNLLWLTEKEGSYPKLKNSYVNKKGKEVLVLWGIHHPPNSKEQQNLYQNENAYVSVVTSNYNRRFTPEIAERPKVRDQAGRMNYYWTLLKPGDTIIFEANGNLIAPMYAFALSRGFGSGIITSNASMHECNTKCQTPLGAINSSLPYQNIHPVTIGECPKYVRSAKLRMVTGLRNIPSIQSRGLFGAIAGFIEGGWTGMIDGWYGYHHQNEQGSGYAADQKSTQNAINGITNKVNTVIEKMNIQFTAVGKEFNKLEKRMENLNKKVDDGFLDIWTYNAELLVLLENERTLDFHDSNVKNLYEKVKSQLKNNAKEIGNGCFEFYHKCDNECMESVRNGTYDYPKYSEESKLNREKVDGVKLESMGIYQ
H4N6 A/duck/Czechoslovakia/1956 HA, sequence (P19696 17-527 limits assumed): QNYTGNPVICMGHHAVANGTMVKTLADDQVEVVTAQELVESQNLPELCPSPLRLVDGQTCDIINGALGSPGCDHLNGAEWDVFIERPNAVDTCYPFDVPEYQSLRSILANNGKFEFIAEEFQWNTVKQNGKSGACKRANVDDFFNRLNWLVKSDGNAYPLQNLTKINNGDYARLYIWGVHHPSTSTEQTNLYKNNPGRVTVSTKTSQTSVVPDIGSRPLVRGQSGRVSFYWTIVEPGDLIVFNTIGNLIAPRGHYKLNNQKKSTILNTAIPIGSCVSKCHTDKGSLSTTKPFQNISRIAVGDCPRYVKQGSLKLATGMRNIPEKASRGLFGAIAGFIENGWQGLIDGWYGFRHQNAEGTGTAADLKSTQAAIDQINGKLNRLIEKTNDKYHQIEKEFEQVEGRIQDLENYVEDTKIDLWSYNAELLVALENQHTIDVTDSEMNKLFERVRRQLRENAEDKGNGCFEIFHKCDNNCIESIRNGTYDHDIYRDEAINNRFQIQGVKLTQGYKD
H14N5 A/mallard/Astrakhan/263/1982 HA, sequence (P26136 18-531 limits assumed): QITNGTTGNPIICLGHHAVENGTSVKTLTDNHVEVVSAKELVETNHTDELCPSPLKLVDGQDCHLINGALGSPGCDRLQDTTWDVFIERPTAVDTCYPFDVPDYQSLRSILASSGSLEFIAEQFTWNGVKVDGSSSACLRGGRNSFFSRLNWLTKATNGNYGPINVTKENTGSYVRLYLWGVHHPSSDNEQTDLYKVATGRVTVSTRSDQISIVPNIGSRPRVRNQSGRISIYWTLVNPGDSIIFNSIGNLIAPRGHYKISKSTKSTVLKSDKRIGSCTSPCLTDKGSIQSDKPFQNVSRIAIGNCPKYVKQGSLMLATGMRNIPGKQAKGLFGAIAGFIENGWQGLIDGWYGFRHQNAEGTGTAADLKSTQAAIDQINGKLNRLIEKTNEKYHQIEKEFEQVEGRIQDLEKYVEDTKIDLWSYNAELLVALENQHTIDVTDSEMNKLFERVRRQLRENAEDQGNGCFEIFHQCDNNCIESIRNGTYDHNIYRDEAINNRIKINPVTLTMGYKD
H3N2 A/Hong Kong/1/1968 HA, sequence (Q91MA7 17-530 limits assumed): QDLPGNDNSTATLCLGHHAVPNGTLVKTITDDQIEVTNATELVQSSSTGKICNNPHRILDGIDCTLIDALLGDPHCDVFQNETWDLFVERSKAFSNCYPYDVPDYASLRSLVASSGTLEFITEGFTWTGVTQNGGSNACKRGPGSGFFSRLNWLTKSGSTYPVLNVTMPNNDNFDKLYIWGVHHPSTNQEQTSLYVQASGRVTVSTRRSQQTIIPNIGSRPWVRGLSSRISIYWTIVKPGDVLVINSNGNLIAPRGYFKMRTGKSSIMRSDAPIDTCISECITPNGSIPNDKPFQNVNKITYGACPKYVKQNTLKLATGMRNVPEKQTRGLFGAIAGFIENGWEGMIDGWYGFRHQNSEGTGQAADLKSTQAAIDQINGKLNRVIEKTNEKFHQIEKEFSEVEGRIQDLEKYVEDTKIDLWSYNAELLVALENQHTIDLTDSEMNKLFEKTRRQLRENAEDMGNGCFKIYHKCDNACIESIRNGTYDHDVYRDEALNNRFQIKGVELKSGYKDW

## CSCC[C@@H]1NC(=O)CNC(=O)CNC(=O)[C@H](C)NC(=O)[C@H](C(C)C)NC(=O)CNC(=O)[C@H](CC(C)C)NC(=O)[C@@H]2CCCN2C(=O)[C@H](CC(=O)O)NC(=O)[C@H](CCC(=O)O)NC(=O)[C@H](Cc2ccc(O)cc2)NC(=O)[C@H](CC(C)C)NC(=O)[C@H](CO)NC(=O)[C@H](C(C)C)NC(=O)[C@H]2CCCN2C(=O)[C@@H]2CCCN2C(=O)[C@H](Cc2ccc(O)cc2)NC(=O)[C@H](C(C)C)NC(=O)CNC1=O [CP1]
[1]
  KD: N.B.
[2]
  Kd: 91 nM
[3]
  faster koff rate against H5 versus H1 HA: 14 fold
[4]; LLC-PK1, Efflux ratio BA/AB, LLC-MDR1, + 5 µM GF120918
  efflux ratio: 1.36
[4]; LLC-PK1, Efflux ratio BA/AB, LLC-MDR1, no inhibitor
  efflux ratio: 1.57
[4]; LLC-PK1, Efflux ratio, text: LLC-parent and LLC-MDR1, in the presence and absence of elacridar (GF120918)
  efflux ratio: < 2
[4]; + 5 µM GF120918
  Papp A→B: 0.23 ± 0.04 ×10⁻⁶ cm/s
  Papp B→A: 0.32 ± 0.02 ×10⁻⁶ cm/s
[4]; no inhibitor
  Papp A→B: 0.21 ± 0.03 ×10⁻⁶ cm/s
  Papp B→A: 0.33 ± 0.08 ×10⁻⁶ cm/s
[5]
  half-life / residence time t1/2 (range over HAs): 5 to 46 s
  slower dissociation (koff) compared to LP1: 9- to 180 fold
[6]
  IC50: 49 nM and 50 nM
[7]
  KD: N.B.
[8]
  KD: N.B.
[9]
  Kd: 128 nM
[10]
  Kd: 23 nM
[11]
  KD: N.B.
[12]
  Neutralization activity against H5N1 virus (in words): modest activity
[13]
  KD: N.B.
[14]
  KD: N.B.
[15]
  Kd: 2300 nM
[16]
  Kd: > 1000 nM
[17]
  improvement in binding affinity versus linear peptide LP1: 60 fold
[17]; read-out: KD
  Kd: 54 nM
[17]; read-out: KD by SPR
  Kd: 50 nM
[18]
  IC50: 55 nM
[19]
  improvement in binding in AlphaLISA versus LP1: 60- to 440 fold
[19]; read-out: IC50 in AlphaLISA (range over HAs)
  IC50: 52 to 840 nM
[20]
  KD: N.B.
[21]
  Kd: 1100 nM
[22]
  Kd: > 1000 nM
[23]
  Kd: 101 nM
[24]
  IC50: 52 ± 20 nM
[25]
  Binding against group 2 or influenza B HAs in SPR: no binding
[26]
  Protection of HA from low pH-induced conversion to trypsin-susceptible conformation: inhibits the conversion of H1/PR8 HA to the post-fusion conformation
[27]; LLC-PK1
  recovery: 92.9%
[27]; + 5 µM GF120918
  efflux ratio: 2.97
  Papp B→A: 0.22 ± 0.12 ×10⁻⁶ cm/s
[27]; no inhibitor
  efflux ratio: 2.55
  Papp B→A: 0.19 ± 0.09 ×10⁻⁶ cm/s
[27]; LLC-PK1, pH 7.4
  Papp A→B: 0.07 ± 0.01 ×10⁻⁶ cm/s
[28]
  KD: N.B.
[29]
  KD: N.B.
[30]
  KD: N.B.
[31]
  IC50: 840 ± 130 nM
